Measurements as given in patent US8158621B2, “Methods of treating or preventing autoimmune diseases with 2,4-pyrimidinediamine compounds” (Rigel Pharmaceuticals, Inc., priority 2002, dated 2012).
Where two headings read alike, the source gives them in different places.

Test system: Human Jurkat T-cells (clone N)
Test: Jurkat T-cell activation (anti-TCR, CD69 upregulation)
Assay type: cell-based
Procedure: The screening process took place over three days.
On the first day of the screen, cultured cells were spun down on a centrifuge (1000 rpm, 5 minutes) and resuspended at 3.0×10^5 cells/ml in RPMI+5% FBS. On the second day of the screen, cells were spun down at 1000 rpm for 5 minutes and resuspended in RPMI+5% FBS at 1.3×10^5 cells/ml. 85 μl of this cell suspension were added to the wells of U-bottom 96 well plates (Corning) 85 μl of compound or diluted RPMI+5% FBS (as a control) only was added to each well and incubated at 37° C. for 1 hour. The cells were then stimulated with anti-TCR (C305) at: 500 ng/ml by adding a 8× solution in 25 μl to the plated cells. The cells were then incubated at 37° C. for 20 hrs.
On the third day of the screen, the plates were spun at 2500 RPM for 1 minute on a Beckman GS-6R centrifuge, and the medium was then removed. 50 μl staining solution (1:100 dilution of anti-CD69-APC antibody (Becton Dickenson) in PBS+2% FBS) was then added to each well, followed by incubation of the plates 4 degrees for 20 minutes in the dark. 150 μl of wash buffer (PBS+2% FBS) was then added to each well, and the plates were spun at 3000 RPM for 1 minute. The supernatant was again removed, and the pellet was resuspended by vortexing gently. 75 μl of PBS+2% FBS +Cytofix (1:4 dilution) was then added, the plates gently vortexed and wrap in aluminum foil. Cells from the plates were read using a flow cytometer coupled to an automated liquid handling system.
Varied concentrations of compound were compared to solvent only to determine the inhibition of T-cell activation IC50 of each compound.

| Structure (SMILES) | IC50 (Homo sapiens, Jurkat) | IC50 | further results |
| --- | --- | --- | --- |
| CCOc1ccc(Nc2ncc(F)c(Nc3ccc4c(c3)OCCO4)n2)cc1 [Compound R926211] | 15 µM | – | – |
| COc1ccc(Nc2ncc(F)c(Nc3ccc4c(c3)OCCO4)n2)cc1OC [Compound R926212] | 0.56 µM | – | – |
| Fc1ccc(Nc2ncc(F)c(Nc3ccc4c(c3)OCCO4)n2)cc1Cl [Compound R926218] | > 10 µM | – | – |
| Fc1ccc(Nc2ncc(F)c(Nc3ccc4c(c3)OCCO4)n2)cc1 [Compound R926220] | > 10 µM | – | – |
| Fc1cccc(Nc2ncc(F)c(Nc3ccc4c(c3)OCCO4)n2)c1 [Compound R926221] | > 10 µM | – | – |
| CC(C)(C)c1ccc(Nc2ncc(F)c(Nc3ccc(C(C)(C)C)cc3)n2)cc1 [Compound R926222] | > 10 µM | – | – |
| Fc1ccc(Nc2ncc(F)c(Nc3ccc(F)c(Cl)c3)n2)cc1Cl [Compound R926223] | > 10 µM | – | – |
| Fc1ccc(Nc2ncc(F)c(Nc3ccc(F)cc3)n2)cc1 [Compound R926224] | > 10 µM | – | – |
| Cc1ccc(Nc2ncc(F)c(Nc3ccc(C)cc3)n2)cc1 [Compound R926225] | > 10 µM | – | – |
| CCOC(=O)c1cccc(Nc2ncc(F)c(Nc3cccc(C(=O)OCC)c3)n2)c1 [Compound R926228] | > 10 µM | – | – |
| COCCNc1ncc(F)c(Nc2ccc3c(c2)OCCO3)n1 [Compound R926229] | > 10 µM | – | – |
| COc1ccc(CNc2ncc(F)c(Nc3ccc4c(c3)OCCO4)n2)cc1 [Compound R926230] | > 10 µM | – | – |
| CCc1ccc(Nc2ncc(F)c(Nc3ccc(CC)cc3)n2)cc1 [Compound R926234] | > 10 µM | – | – |
| CCc1ccc(Nc2ncc(F)c(Nc3ccc4c(c3)OCCO4)n2)cc1 [Compound R926237] | > 10 µM | – | – |
| O=C(O)COc1ccc(Nc2ncc(F)c(Nc3ccc4c(c3)OCCO4)n2)cc1 [Compound R926238] | – | > 10 µM | – |
| COC(=O)COc1ccc(Nc2ncc(F)c(Nc3ccc(OCC(=O)OC)cc3)n2)cc1 [Compound R926240] | – | > 10 µM | – |
| c1cc(Nc2ccc3c(c2)OCCO3)nc(Nc2ccc3c(c2)OCCO3)n1 [Compound R926243] | 2.99 µM | – | – |
| Clc1cc(Nc2ccc3c(c2)OCCO3)nc(Nc2ccc3c(c2)OCCO3)n1 [Compound R926245] | 11.1 µM | – | – |
| CCOC(=O)c1cnc(Nc2ccc(OCC(=O)OC)cc2)nc1Nc1ccc(OCC(=O)OC)cc1 [Compound R926253] | – | > 10 µM | – |
| COC(=O)COc1cccc(Nc2ncc(F)c(Nc3cccc(OCC(=O)OC)c3)n2)c1 [Compound R926255] | – | > 10 µM | – |
| COC(=O)COc1ccc(Nc2ccnc(Nc3ccc(OCC(=O)OC)cc3)n2)cc1 [Compound R926256] | – | > 10 µM | – |
| COC(=O)COc1ccc(Nc2ncc(C)c(Nc3ccc(OCC(=O)OC)cc3)n2)cc1 [Compound R926258] | – | > 10 µM | – |
| CCOC(=O)c1cnc(Nc2ccc(CC#N)cc2)nc1Nc1ccc(CC#N)cc1 [Compound R926319] | 15.6 µM | – | – |
| CCOC(=O)c1cnc(Nc2ccc3cn[nH]c3c2)nc1Nc1ccc2cn[nH]c2c1 [Compound R926320] | – | > 10 µM | – |

| Structure (SMILES) | IC50 (Homo sapiens, Jurkat) | IC50 | further results |
| --- | --- | --- | --- |
| CCOC(=O)c1cnc(Nc2ccc3c(c2)NC(=O)CO3)nc1Nc1ccc2c(c1)NC(=O)CO2 [Compound R926325] | – | > 10 µM | – |
| COc1ccc(Nc2ncc(F)c(Nc3ccc(OC)c(O)c3)n2)cc1O [Compound R926339] | 2.15 µM | – | – |
| CCOC(=O)Nc1ccc(Nc2ncc(F)c(Nc3ccc(NC(=O)OCC)c(O)c3)n2)cc1O [Compound R926340] | > 10 µM | – | – |
| Cc1ccc(Nc2ncc(F)c(Nc3ccc(C)c(O)c3)n2)cc1O [Compound R926341] | – | 3.68 µM | – |
| OCCOc1ccc(Nc2ncc(F)c(Nc3cccc(O)c3)n2)cc1 [Compound R926376] | > 10 µM | – | – |
| Fc1cnc(Nc2ccc3c(c2)OC(F)(F)O3)nc1Nc1ccc2c(c1)OCCO2 [Compound R926386] | > 10 µM | – | – |
| Fc1cnc(Nc2cccc(OCc3ccccc3)c2)nc1Nc1cccc(OCc2ccccc2)c1 [Compound R926394] | > 10 µM | – | – |
| CCOC(=O)COc1ccc(Nc2ncc(F)c(Nc3cccc(O)c3)n2)cc1 [Compound R926395] | – | 17.7 µM | – |
| CCOC(=O)COc1ccc(Nc2ncc(Br)c(Nc3cccc(O)c3)n2)cc1 [Compound R926396] | – | 6.59 µM | – |
| Cc1cnc(NCCc2ccc(O)cc2)nc1NCCc1ccc(O)cc1 [Compound R926397] | 12.5 µM | – | – |
| Fc1cnc(Nc2ccccc2-c2ccccc2)nc1Nc1ccccc1-c1ccccc1 [Compound R926398] | > 10 µM | – | – |
| COc1ccc(Nc2ncc(F)c(Nc3ccc(OC)c(-c4ccccc4)c3)n2)cc1-c1ccccc1 [Compound R926399] | – | > 10 µM | – |
| COc1ccc(-c2ccccc2)cc1Nc1ncc(F)c(Nc2cc(-c3ccccc3)ccc2OC)n1 [Compound R926400] | – | > 10 µM | – |
| COc1cc(-c2ccccc2)c(C)cc1Nc1ncc(F)c(Nc2cc(C)c(-c3ccccc3)cc2OC)n1 [Compound R926401] | – | > 10 µM | – |
| Cc1ccc(-c2ccccc2)cc1Nc1ncc(F)c(Nc2cc(-c3ccccc3)ccc2C)n1 [Compound R926402] | – | > 10 µM | – |
| Fc1cnc(Nc2cccc(-c3ccccc3)c2)nc1Nc1cccc(-c2ccccc2)c1 [Compound R926403] | > 10 µM | – | – |
| Cc1cnc(Nc2ccccc2-c2ccccc2)nc1Nc1ccccc1-c1ccccc1 [Compound R926404] | > 10 µM | – | – |
| Oc1ccc(Nc2ncc(F)c(Nc3ccc(O)cc3)n2)cc1 [Compound R926405] | 7.62 µM | – | – |
| Oc1cccc(Nc2cc(Cl)nc(Nc3cccc(O)c3)n2)c1 [Compound R926408] | > 10 µM | – | – |
| Oc1cccc(Nc2cc(Nc3cccc(O)c3)nc(Nc3cccc(O)c3)n2)c1 [Compound R926409] | 3.54 µM | – | – |
| COC(=O)COc1ccc(Nc2cc(Cl)nc(Nc3ccc(OCC(=O)OC)cc3)n2)cc1 [Compound R926411] | – | 16.9 µM | – |
| CC(C)NC(=O)Oc1cccc(Nc2ncc(F)c(Nc3cccc(OC(=O)NC(C)C)c3)n2)c1 [Compound R926412] | – | – | IC50 (Homo sapiens): 2.38 µM |
| Oc1cccc(Nc2ncc(F)c(Nc3cccc(O)c3)n2)c1 [Compound R926461] | – | 3.39 µM | – |
| Cc1cc(Nc2ncc(F)c(Nc3ccc(O)c(C)c3)n2)ccc1O [Compound R926469] | – | > 10 µM | – |

| Structure (SMILES) | IC50 (Homo sapiens, Jurkat) | IC50 | further results |
| --- | --- | --- | --- |
| CCOC(=O)c1cc2cc(Nc3ncc(F)c(Nc4ccc(C(C)(C)C)cc4)n3)ccc2[nH]1 [Compound R926474] | 10.8 µM | – | – |
| CSc1nc(Nc2ccc3c(c2)OCCO3)nc(Nc2ccc3c(c2)OCCO3)c1Cl [Compound R926475] | – | > 10 µM | – |
| CCOC(=O)c1cc2cc(Nc3ncc(F)c(Nc4ccc5c(c4)OCCO5)n3)ccc2[nH]1 [Compound R926476] | 3.9 µM | – | – |
| O=C(O)c1cc2cc(Nc3ncc(F)c(Nc4cccc(O)c4)n3)ccc2[nH]1 [Compound R926479] | > 10 µM | – | – |
| N#CCOc1ccc(Nc2ncc(F)c(Nc3ccc4c(c3)OCCO4)n2)cc1 [Compound R926480] | – | > 10 µM | – |
| CC(C)(C)c1ccc(Nc2nc(Nc3ccc4oc(C(=O)O)cc4c3)ncc2F)cc1 [Compound R926481] | > 10 µM | – | – |
| CCOC(=O)COc1cccc(Nc2ncc(F)c(Nc3ccc4c(c3)OCCO4)n2)c1 [Compound R926482] | – | 8.26 µM | – |
| O=C(O)COc1cccc(Nc2ncc(F)c(Nc3ccc4c(c3)OCCO4)n2)c1 [Compound R926483] | – | > 10 µM | – |
| O=C(COc1cccc(Nc2ncc(F)c(Nc3ccc4c(c3)OCCO4)n2)c1)N1CCOCC1 [Compound R926484] | – | > 10 µM | – |
| COC(=O)c1cc2cc(Nc3nc(Nc4ccc5c(c4)OCCO5)ncc3F)ccc2o1 [Compound R926485] | > 10 µM | – | – |
| Fc1cnc(Nc2cccc(OCCN3CCOCC3)c2)nc1Nc1ccc2c(c1)OCCO2 [Compound R926486] | – | 1.75 µM | – |
| COC(=O)c1cc2cc(Nc3ncc(F)c(Nc4cccc(OC(C)C)c4)n3)ccc2o1 [Compound R926487] | 48.9 µM | – | – |
| O=C(c1cc2cc(Nc3ncc(F)c(Nc4cccc(O)c4)n3)ccc2o1)N1CCOCC1 [Compound R926488] | – | 2.43 µM | – |
| CC(C)Oc1cccc(Nc2nc(Nc3ccc4oc(C(=O)N5CCOCC5)cc4c3)ncc2F)c1 [Compound R926489] | – | > 10 µM | – |
| CNC(=O)c1cc2cc(Nc3nc(Nc4ccc5c(c4)OCCO5)ncc3F)ccc2o1 [Compound R926491] | 2.73 µM | – | – |
| O=C(c1cc2cc(Nc3ncc(F)c(Nc4ccc5c(c4)OCCO5)n3)ccc2o1)N1CCOCC1 [Compound R926492] | – | 3.33 µM | – |
| O=C(NCCO)c1cc2cc(Nc3ncc(F)c(Nc4ccc5c(c4)OCCO5)n3)ccc2o1 [Compound R926498] | 5.73 µM | – | – |
| O=C(c1cc2cc(Nc3ncc(F)c(Nc4ccc5c(c4)OCCO5)n3)ccc2o1)N1CCNCC1 [Compound R926499] | – | 0.56 µM | – |
| O=C(COc1cccc(Nc2ncc(F)c(Nc3ccc4c(c3)OCCO4)n2)c1)N1CCNCC1 [Compound R926503] | – | 2.6 µM | – |
| O=C(COc1cccc(Nc2ncc(F)c(Nc3ccc4c(c3)OCCO4)n2)c1)N1CCNCC1 [Compound R926504] | – | 1.78 µM | – |
| O=C(COc1cccc(Nc2ncc(F)c(Nc3ccc4c(c3)OCCO4)n2)c1)NCCO [Compound R926505] | – | 1.15 µM | – |
| O=C(COc1cccc(Nc2ncc(F)c(Nc3cccc(O)c3)n2)c1)NCCO [Compound R926506] | – | 2.68 µM | – |
| CNCCOc1cccc(Nc2ncc(F)c(Nc3ccc4c(c3)OCCO4)n2)c1 [Compound R926510] | – | 0.122 µM | – |
| c1cc2c(cc1Nc1cc(Nc3ccc4c(c3)OCCO4)nc(Nc3ccc4c(c3)OCCO4)n1)OCCO2 [Compound R926516] | 17.8 µM | – | – |
